Laboratory results as given in paper PMC7725003, “Systematically Studying the Optimal Amino Acid Distribution Patterns of the Amphiphilic Structure by Using the Ultrashort Amphiphiles” (Frontiers in Microbiology, 2020).
Where no end group is shown, it is not given here.

Experiments:
[1] = test system: E. coli 25922; type: cell-based, Escherichia coli; conditions: 25922, 24 h
Experimental: (§1) The antimicrobial activities of the peptides were measured using a method adapted from the National Committee for Clinical Laboratory Standards (NCCLS) with some modifications ([Chou et al., 2016]). The specific procedure for these assays has been previously described. In brief, the bacterial cells were grown to a mid-logarithmic phase and diluted in MHB to an ultimate concentration of 0.5–1 × 10^6 CFU mL^–1. Subsequently, the peptides were consecutively diluted in a 0.2% BSA solution and then added to a bacterial solution in a 96-well plate at identical volumes. After incubation for 24 h at 37°C, the MICs were determined to be the lowest peptide concentration that inhibited 95% of the bacterial growth by monitoring the absorbance at 492 nm using a microplate reader. Subsequently, 50 μL of each incubation mixture was further transferred to agar plates and incubated overnight. The minimum bactericidal concentrations (MBCs) were determined as the lowest peptide concentration that killed greater than 99.9% of the bacterial cells. Every assay was reproduced more than 3 times.

[2] = test system: E. coli O78; type: cell-based, Escherichia coli; conditions: O78, 24 h
Experimental: as §1

[3] = test system: E. coli UB1005; type: cell-based, Escherichia coli; conditions: UB1005, 24 h
Experimental: as §1

[4] = test system: S. typhimurium 14028; type: cell-based, Salmonella typhimurium; conditions: 14028, 24 h
Experimental: as §1

[5] = test system: S. typhimurium 7731; type: cell-based, Salmonella typhimurium; conditions: 7731, 24 h
Experimental: as §1

[6] = test system: S. pullorum 7913; type: cell-based, Salmonella pullorum; conditions: 7913, 24 h
Experimental: as §1

[7] = test system: P. aeruginosa 27853; type: cell-based, Pseudomonas aeruginosa; conditions: 27853, 24 h
Experimental: as §1

[8] = test system: Gram-negative bacteria
Experimental: (§2) The antimicrobial activity of AMPs is the most decisive index for evaluating the clinical application of antimicrobial drugs.
as §1, with “The minimum bactericidal concentrations (MBCs) were determined as the lowest peptide concentration that killed greater than 99.9% of the bacterial cells.” left out

[9] = test system: Gram-positive bacteria
Experimental: as §2
as §1, with “The minimum bactericidal concentrations (MBCs) were determined as the lowest peptide concentration that killed greater than 99.9% of the bacterial cells.” left out

[10] = test system: S. aureus 25923; type: cell-based, Staphylococcus aureus; conditions: 25923, 24 h
Experimental: as §1

[11] = test system: S. aureus 29213; type: cell-based, Staphylococcus aureus; conditions: 29213, 24 h
Experimental: as §1

[12] = test system: S. epidermidis 12228; type: cell-based, Staphylococcus epidermidis; conditions: 12228, 24 h
Experimental: as §1

[13] = test system: MRSA 43300; type: cell-based, methicillin-resistant S. aureus; conditions: 43300, 24 h
Experimental: as §1

[14] = test system: B. subtilis 63501; type: cell-based, Bacillus subtilis; conditions: 63501, 24 h
Experimental: as §1

[15] = test system: E. faecalis 29212; type: cell-based, Enterococcus faecalis; conditions: 29212, 24 h
Experimental: as §1

[16] = test system: Listeria monocytogenes CGMCC 1.1075; type: cell-based; conditions: CGMCC 1.1075, 24 h
Experimental: as §1

[17] = test system: all of the tested bacterial strains; experiment: Geometric mean of MICs, all tested bacterial strains; type: cell-based
Text: The antimicrobial activity of AMPs is the most decisive index for evaluating the clinical application of antimicrobial drugs. Many antimicrobial agents inhibit bacterial growth rather than kill the bacteria quickly, and long-term infections are pathogens that are not completely killed, which results in bacterial severe drug resistance. […] The geometric mean (GM) values of the MICs/MBCs of the two series across all of the tested bacterial strains are represented in Table 3, which depicts the average bacteriostatic/bactericidal level of a peptide.
as §1

[18] = test system: E. coli ATCC 25922; experiment: Salt sensitivity assay (MIC); type: cell-based, Escherichia coli
Experimental: as §1
(§3) The salt sensitivities of the peptides were determined. E. coli ATCC 25922 and S. aureus ATCC 29213 were incubated in the presence of various ultimate concentrations of physiological salts (150 mM NaCl, 4.5 mM KCl, 6 μM NH4Cl, 8 μM ZnCl2, 1 mM MgCl2, 2mM CaCl2, and 4 μM FeCl3) according to our previous protocol ([Yang et al., 2019]). These tests were performed under the MICs, and three independent assays were performed.

[19] = test system: S. aureus 29213; experiment: Salt sensitivity assay (MIC); type: cell-based, Staphylococcus aureus
Experimental: as §1, §3

[20] = geometric mean of MICs (Table 3)
[21] = therapeutic index TI = MHC/GM MIC
[22] = no added salt, three independent assays

WWRWRRRWW-NH2 [W2]
2.97 µM: GM, Gram-positive bacteria [9, 20]
16 µM: MBC [2] | MBC [4] | MIC [7] | MBC [15] | MIC [16] | MIC, NaCl ([18]; 150 mM NaCl)
47.06: TI, Gram-negative bacteria [8, 21]
86.20: TI, Gram-positive bacteria [9, 21]
61.24: TI, All [17, 21]
4 µM: MIC [1] | MIC [3] | MIC [5] | MIC [6] | MBC [10] | MBC [11] | MBC [12] | MBC [13] | MIC, NH4Cl ([18]; 6 μM NH4Cl) | MIC, ZnCl2 ([18]; 8 μM ZnCl2) | MIC, MgCl2 ([18]; 1 mM MgCl2) | MIC, KCl ([18]; 4.5 mM KCl) | MIC, Control [18, 22] | MIC, FeCl3 ([19]; 4 μM FeCl3) | MIC, ZnCl2 ([19]; 8 μM ZnCl2) | MIC, MgCl2 ([19]; 1 mM MgCl2) | MIC, CaCl2 ([19]; 2 mM CaCl2) | MIC, KCl ([19]; 4.5 mM KCl) | MIC, NaCl ([19]; 150 mM NaCl)
32 µM: MBC [7] | MBC [16]
4.18 µM: GM, All ([17]; geometric mean of MICs across all tested strains)
8 µM: MBC [1] | MIC [2] | MBC [3] | MIC [4] | MBC [5] | MBC [6] | MIC [15] | MIC, FeCl3 ([18]; 4 μM FeCl3) | MIC, CaCl2 ([18]; 2 mM CaCl2)
5.44 µM: GM, Gram-negative bacteria [8, 20]
1 µM: MIC [14]
2 µM: MIC [10] | MIC [11] | MIC [12] | MIC [13] | MBC [14] | MIC, NH4Cl ([19]; 6 μM NH4Cl) | MIC, Control [19, 22]
